Test results taken from patent publication US20070212428A1, “METHODS AND COMPOSITIONS FOR TREATING MOOD DISORDER” (MOOD MANAGEMENT SCIENCES, INC., priority 2004, published 2007).
Where a name gives a salt, the structure may show the parent alone. Read-outs that look alike come from different tables or passages of the source.

Tests used:
[1] = tested on: GABA uptake or degradation; settings: cited from earlier work
[2] = tested on: dopamine neuronal reuptake; settings: cited from earlier work
[3] = tested on: norepinephrine neuronal reuptake; settings: cited from earlier work
[4] = tested on: GABAA or GABAB; settings: cited from earlier work
[5] = tested on: Dysthymia; assay: Example 10: case, dysthymia with general anxiety disorder; settings: earlier treatment with 40 mg
[6] = cited from earlier work; for oral absorption (in words): oral administration; for time to peak plasma concentration: after oral dosing
[7] = cited from earlier work
[8] = tested on: muscarinic, histaminergic, or a-l adrenergic receptors; settings: in vitro; cited from earlier work
[9] = tested on: neuronal serotonin reuptake; settings: cited from earlier work
[10] = tested on: cholinergic muscarinic receptors; settings: cited from earlier work
[11] = target: serotonin 5-HT2A receptor (Homo sapiens, UniProt P28223); settings: cited from earlier work
[12] = target: serotonin reuptake site (Homo sapiens, UniProt P31645); settings: cited from earlier work
[13] = tested on: dopaminergic, adrenergic, cholinergic, or histaminergic receptors; settings: in vitro; cited from earlier work
[14] = tested on: monoamine oxidase; settings: cited from earlier work
[15] = tested on: human plasma proteins; settings: cited from earlier work
[16] = tested on: Dysthymia; assay: Example 12: method for treating Dysthymia (a person); type: in vivo, human; settings: 10 years prior; 60 mg fluvoxamine, 40 mg paroxetine
[17] = tested on: status epilepticus; settings: add-on therapy with other anti-epileptic drugs; cited from earlier work
[18] = tested on: bipolar I patients; settings: cited from earlier work
[19] = human, in vivo; cited from earlier work
[20] = tested on: cholinergic, muscarinic, and benzodiazepine receptors; settings: cited from earlier work
[21] = tested on: dopamine D1 and D2, muscarinic, serotonin 5HT1A, 5HT2, 5HT3, β-1 and 2 adrenergic, α-1 and α-2 adrenergic, histamine H2 and H3, adenosine A1 and A2, opiate μ …; settings: cited from earlier work
[22] = tested on: histamine H1, serotonin 5HT1B, benzodiazepine, and chloride channel receptors; settings: cited from earlier work
[23] = tested on: uptake of glutamate, or choline; settings: cited from earlier work
[24] = co-administered with venlafaxine
[25] = maintenance treatment over eighteen months
[26] = 30 mg oral dose, over a 10 day period
[27] = quetiapine fumarate (150 mg BID) and divalproex (500 mg BID)

Sequence of serotonin 5-HT2A receptor (P28223 whole entry): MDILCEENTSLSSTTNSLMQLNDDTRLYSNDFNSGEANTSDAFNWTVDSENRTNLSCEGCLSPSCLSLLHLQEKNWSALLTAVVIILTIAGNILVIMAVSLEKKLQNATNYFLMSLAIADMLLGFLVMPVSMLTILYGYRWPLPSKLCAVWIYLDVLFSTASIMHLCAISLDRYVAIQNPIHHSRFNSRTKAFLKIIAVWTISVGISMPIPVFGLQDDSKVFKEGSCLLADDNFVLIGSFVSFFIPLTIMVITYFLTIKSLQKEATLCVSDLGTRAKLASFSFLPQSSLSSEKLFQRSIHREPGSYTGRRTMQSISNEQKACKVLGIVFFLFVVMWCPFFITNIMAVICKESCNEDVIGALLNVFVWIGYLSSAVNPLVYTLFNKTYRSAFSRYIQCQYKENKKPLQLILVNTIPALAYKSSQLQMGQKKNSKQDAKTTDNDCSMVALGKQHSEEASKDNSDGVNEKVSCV
Sequence of serotonin reuptake site (P31645 whole entry): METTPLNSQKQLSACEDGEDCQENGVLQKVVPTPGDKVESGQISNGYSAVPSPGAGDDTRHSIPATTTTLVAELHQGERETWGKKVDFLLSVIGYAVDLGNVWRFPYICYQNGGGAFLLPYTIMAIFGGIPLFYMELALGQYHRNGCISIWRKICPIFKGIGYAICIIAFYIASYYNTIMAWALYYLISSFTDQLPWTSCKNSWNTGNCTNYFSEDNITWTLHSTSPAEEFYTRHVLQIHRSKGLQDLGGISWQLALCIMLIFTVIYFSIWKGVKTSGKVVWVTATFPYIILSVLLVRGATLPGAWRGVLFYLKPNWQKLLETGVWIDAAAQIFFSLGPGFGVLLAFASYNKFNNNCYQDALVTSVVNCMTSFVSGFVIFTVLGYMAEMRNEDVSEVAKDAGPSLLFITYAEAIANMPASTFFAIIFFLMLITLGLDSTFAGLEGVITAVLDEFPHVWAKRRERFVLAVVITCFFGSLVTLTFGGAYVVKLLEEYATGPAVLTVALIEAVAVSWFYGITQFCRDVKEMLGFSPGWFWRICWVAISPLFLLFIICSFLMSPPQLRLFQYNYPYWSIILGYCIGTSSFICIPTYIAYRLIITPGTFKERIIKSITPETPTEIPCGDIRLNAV

## 1-(aminoethyl)cyclohexaneacetic acid [gabapentin]
[1]
  inhibition of GABA uptake or degradation: not an inhibitor
[2]
  effect on dopamine reuptake (in words): does not alter
[3]
  effect on norepinephrine reuptake (in words): does not alter
[4]
  effect on radioligand binding: does not modify

## CNCCC(Oc1ccc(C(F)(F)F)cc1)c1ccccc1.Cl (racemic) [fluoxetine, (±)-N-methyl-3-phenyl-[(α,α,α-trifluoro-p-tolyl)oxyl]propylamine hydrochloride]
[5]
  effect on depressive symptoms: decreased depressive symptoms
[5]; subsequently discontinued
  adverse effect: “dulled” the patient cognitively
[6]; following acute administration
  half life: 24 to 72 h

## COc1ccc(C(CN(C)C)C2(O)CCCCC2)cc1.Cl (racemic) [venlafaxine, (R/S)-1-[2-(dimethylamino)-1-(4-methoxyphenyl)ethyl] cyclohexanol hydrochloride]
[6]
  oral absorption (in words): well absorbed
[6]; plasma
  elimination half-life: 3 to 7 h
[6]; single dose
  fraction renally excreted within 48 hours: 87%
[7]; venlafaxine 150 mg/day with a single 600 mg oral dose of lithium, 12 healthy males
  steady-state pharmacokinetics: unaffected
[2]
  effect on dopamine reuptake (in words): weak inhibitors
[3]
  effect on norepinephrine reuptake (in words): potent inhibitors
[8]
  affinity: not significant affinity

## CN(C)CC(c1ccc(O)cc1)C1(O)CCCCC1 (stereo not drawn) [ODV, O-desmethylvenlafaxine]
[6]; human, in vivo
  elimination half-life: 9 to 13 h
[9]
  inhibition of serotonin reuptake (in words): potent inhibitors
[2]
  effect on dopamine reuptake (in words): weak inhibitors
[3]
  effect on norepinephrine reuptake (in words): potent inhibitors
[8]
  affinity: not significant affinity

## O=C1CCc2ccc(OCCCCN3CCN(c4cccc(Cl)c4Cl)CC3)cc2N1 [aripiprazole, 7-[4-[4-(2,3-dichlorophenyl)-1-piperazinyl]butoxy]-3,4-dihydrocarbostyril]
[10]
  affinity: no appreciable affinity
[11]
  functional activity: antagonist
[12]
  affinity: moderate affinity
[6]
  oral absorption (in words): well absorbed
[7]; lithium (1200-1800 mg/day) for 21 days with aripiprazole (30 mg/day)
  pharmacokinetics: did not result in clinically significant changes

## CNCC[C@H](Oc1cccc2ccccc12)c1cccs1.Cl [duloxetine, (+)-(S)-N-methyl-γ-(1-naphthyloxy)-2-thiophenepropylamine hydrochloride]
[13]
  affinity: no significant affinity
[14]
  inhibition of monoamine oxidase: does not inhibit

## CN(C)CCC[C@@]1(c2ccc(F)cc2)OCc2cc(C#N)ccc21 [escitalopram, S-(+)-1-[3-(dimethylamino)propyl]-1-(p-fluorophenyl)-5-phthalancarbonitrile oxalate]
[15]
  binding to human plasma proteins: approximately 56%
[6]
  time to peak plasma concentration: about 5 hours
[6]; daily dosing
  time to steady state plasma concentrations: a week
[6]; elderly patients
  increase of half life in elderly patients: approximately 50%
[6]; plasma
  elimination half-life: 27 to 32 h
[2]
  effect on dopamine reuptake (in words): minimal effects
[3]
  effect on norepinephrine reuptake (in words): minimal effects

## COCCCC/C(=N\OCCN)c1ccc(C(F)(F)F)cc1 [fluvoxamine]
[16]
  outcome of prior antidepressant trials: unsuccessfully

## O=C(CCCN1CCC(O)(c2ccc(Cl)cc2)CC1)c1ccc(F)cc1 [haloperidol, 4-[4-(p-chlorophenyl)-4-hydroxypiperidino]-4′-fluorobutyrophenone]
[6]; after i.m. injection
  time to peak plasma level: about 20 minutes
[7]; [24]
  half life: unchanged
  increase of peak plasma concentration (Cmax): 88%
[7]; single 2 mg dose of haloperidol with venlafaxine 150 mg/day
  increase in the area under the plasma concentration curve: 70%

## Nc1nnc(-c2cccc(Cl)c2Cl)c(N)n1 [lamotrigine, 3,5-diamino-6-(2,3-dichlorophenyl)-1,2,4-triazine]
[17]
  plasma concentration generally effective in controlling SE: about 24 μg/ml
[18]; approximately 200 mg/day, ranging from 100 mg/day to 400 mg/day
  delay of time to occurrence of a mood episode: effective in delaying the time to occurrence of a mood episode
[18]; [25]
  mood pole against which predominantly effective: predominantly effective against depression
  prevention of mood episodes compared with placebo: superior to placebo

## [Li] [lithium]
[6]; human, in vivo
  CSF lithium level at equilibration relative to the plasma concentration: approximately half
  fraction eliminated with the feces: less than 1%
  fraction of a single dose eliminated in urine: Approximately 95%
  fraction of a single dose excreted in 24 hours: About 50%
  fraction of the filtered lithium reabsorbed in the tubules: 80%
[6]
  oral absorption (in words): rapidly absorbed
[6]; repeated dosing
  time to steady state plasma concentrations: five to six
[7]; co-administered with risperidone
  AUC and peak plasma concentrations of lithium: unaffected
[7]; multiple doses of olanzapine (10 mg for 8 days)
  kinetics of lithium: did not influence
[7]; valproate (500 mg BID) with lithium carbonate (300 mg TID), normal male volunteers
  steady state kinetics of lithium: not effect
[7]; with quetiapine (250 mg TID)
  steady-state pharmacokinetic parameters of lithium: no effect
[7]; with venlafaxine
  steady-state pharmacokinetics of lithium: unaffected
[7]; ziprasidone (40 mg BID) with lithium (450 mg BID for 7 days)
  steady state level and renal clearance of lithium: not affected

## NC(=O)N1c2ccccc2CC(=O)c2ccccc21 [oxcarbazepine, 10,11-dihydro-10-oxo-5H-dibenzo[b,f]azepine-5-carboxamide]
[19]
  tolerability of dose: not be able to tolerate
[6]; plasma
  elimination half-life: about 2 hours

## Fc1ccc([C@@H]2CCNC[C@H]2COc2ccc3c(c2)OCO3)cc1 [paroxetine, (−)-trans-4R-(4′-fluorophenyl)-3S-[(3′,4′-methylenedioxyphenloxy)methyl]piperidine hydrochloride hemihydrate]
[16]
  outcome of prior antidepressant trials: unsuccessfully
[6]; [26]
  fraction of dose renally excreted: Approximately 64%
  fraction of dose renally excreted as metabolites: 62%
  fraction of dose renally excreted as the parent compound: 2%
[6]; 30 mg oral dose
  fraction of dose excreted in the feces: 36%
[6]
  oral absorption (in words): completely absorbed
[6]; repeated dosing
  time to steady state plasma concentrations: approximately 10 days
[2]
  effect on dopamine reuptake (in words): only very weak effects
[3]
  effect on norepinephrine reuptake (in words): only very weak effects

## NNCCc1ccccc1 [phenelzine sulfate, (2-phenethyl)hydrazine]
[6]
  time to peak plasma concentration: 43 min
[6]; plasma
  elimination half-life: 11.6 h
[14]
  inhibition of monoamine oxidase: potent inhibitor

## OCCOCCN1CCN(C2=Nc3ccccc3Sc3ccccc32)CC1 [quetiapine, 5-[2-(4-dibenzo[b,f][1,4]thiazepin-11-yl-1-piperazinyl)ethoxy]ethanol fumarate]
[6]
  time to peak plasma concentration: 90 min
[6]; plasma
  elimination half-life: about 6 hours
[6]; repeated dosing
  time to steady state plasma concentrations: two
[7]; [27]
  extent of absorption or mean oral clearance: without affecting
  increase of mean maximum plasma concentration at steady state: 17%
[7]; quetiapine fumarate (300 mg BID) with fluoxetine (60 mg once daily), haloperidol (7.5 mg BID) or risperidone (3 mg BID)
  steady-state pharmacokinetics: did not alter
[20]
  affinity: no appreciable affinity

## Cc1ccsc1C(=CCCN1CCC[C@@H](C(=O)O)C1)c1sccc1C [tiagabine, (−)-®-1-[4,4-Bis(3-methyl-2-thienyl)-3-butenyl]nipecotic acid hydrochloride]
[21]
  binding: little or no binding
[22]
  binding: at concentrations greatly exceeding that is needed to inhibit the uptake of GABA
[6]
  time to peak plasma concentration: approximately 45 minutes
  oral absorption (in words): rapid
[6]; as metabolites
  fraction excreted in the feces: 63%
  fraction excreted renally: 25%
[6]; human, in vivo
  fraction excreted unchanged: 2%
[23]
  inhibition of uptake of glutamate or choline: does not significantly inhibit
[9]
  inhibition of serotonin reuptake (in words): does not significantly inhibit
[2]
  effect on dopamine reuptake (in words): does not significantly inhibit
[3]
  effect on norepinephrine reuptake (in words): does not significantly inhibit
